We go through one compound from article PMC10507085, “Pharmacological inhibition of TBK1/IKKε blunts immunopathology in a murine model of SARS-CoV-2 infection” (Nature Communications, 2023).

Each structure is given as a SMILES string.

Some targets named below: BMPR2 (Homo sapiens, UniProt Q13873); CDK16 (Homo sapiens, UniProt Q00536); CDKL5 (Homo sapiens, UniProt O76039); EGFR (Homo sapiens, UniProt P00533); ERBB4 (Homo sapiens, UniProt Q15303); FLT3-autoinhibited (Homo sapiens, UniProt P36888); HIPK2 (Homo sapiens, UniProt Q9H2X6); KDR (Homo sapiens, UniProt P35968); MAP3K14 (Homo sapiens, UniProt Q99558); MAPK14 (Homo sapiens, UniProt Q16539); MAPKAPK2 (Homo sapiens, UniProt P49137); MET (Homo sapiens, UniProt P08581); MYLK2 (Homo sapiens, UniProt Q9H1R3); NEK1 (Homo sapiens, UniProt Q96PY6); PIK3CG (Homo sapiens, UniProt P48736); ROCK2 (Homo sapiens, UniProt O75116); SGK1 (Homo sapiens, UniProt O00141); SNRK (Homo sapiens, UniProt Q9NRH2); STK16 (Homo sapiens, UniProt O75716); TNK1 (Homo sapiens, UniProt Q13470).

Experiment in all cases: biochemical
Set-up in all cases: KINOMEscan competition binding, DNA-tagged kinase against immobilised ligand, qPCR read-out
Holding throughout (conditions): read-out: Percent Control
Background: In qPCR the cycle at which signal appears reflects the starting amount.

Sequence of FLT3-autoinhibited (P36888 whole entry): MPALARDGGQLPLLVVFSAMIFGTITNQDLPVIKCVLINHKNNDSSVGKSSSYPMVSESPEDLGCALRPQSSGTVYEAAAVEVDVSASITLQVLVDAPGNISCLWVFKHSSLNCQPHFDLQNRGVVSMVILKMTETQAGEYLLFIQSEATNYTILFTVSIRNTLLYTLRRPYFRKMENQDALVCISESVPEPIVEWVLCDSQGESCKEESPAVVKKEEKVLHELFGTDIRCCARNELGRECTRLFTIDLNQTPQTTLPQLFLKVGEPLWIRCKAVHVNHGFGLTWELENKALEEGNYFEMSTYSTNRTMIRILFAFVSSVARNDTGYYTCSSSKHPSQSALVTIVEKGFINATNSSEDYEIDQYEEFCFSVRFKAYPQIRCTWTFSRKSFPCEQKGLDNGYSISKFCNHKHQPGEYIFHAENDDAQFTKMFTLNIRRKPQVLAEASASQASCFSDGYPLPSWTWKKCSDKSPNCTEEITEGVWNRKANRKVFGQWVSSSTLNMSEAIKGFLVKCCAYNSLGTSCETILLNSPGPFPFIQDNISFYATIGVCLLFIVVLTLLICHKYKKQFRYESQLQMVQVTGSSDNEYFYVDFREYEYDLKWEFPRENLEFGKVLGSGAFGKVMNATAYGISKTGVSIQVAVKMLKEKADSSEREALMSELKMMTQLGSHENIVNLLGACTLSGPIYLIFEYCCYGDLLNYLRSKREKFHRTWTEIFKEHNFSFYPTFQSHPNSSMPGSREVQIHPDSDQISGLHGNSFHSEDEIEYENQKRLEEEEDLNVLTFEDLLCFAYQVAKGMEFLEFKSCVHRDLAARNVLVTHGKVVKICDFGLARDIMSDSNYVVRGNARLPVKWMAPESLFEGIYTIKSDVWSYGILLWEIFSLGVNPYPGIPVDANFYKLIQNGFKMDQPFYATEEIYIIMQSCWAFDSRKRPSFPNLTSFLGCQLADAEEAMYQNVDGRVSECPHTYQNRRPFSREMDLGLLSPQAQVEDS
Sequence of MAPKAPK2 (P49137 whole entry): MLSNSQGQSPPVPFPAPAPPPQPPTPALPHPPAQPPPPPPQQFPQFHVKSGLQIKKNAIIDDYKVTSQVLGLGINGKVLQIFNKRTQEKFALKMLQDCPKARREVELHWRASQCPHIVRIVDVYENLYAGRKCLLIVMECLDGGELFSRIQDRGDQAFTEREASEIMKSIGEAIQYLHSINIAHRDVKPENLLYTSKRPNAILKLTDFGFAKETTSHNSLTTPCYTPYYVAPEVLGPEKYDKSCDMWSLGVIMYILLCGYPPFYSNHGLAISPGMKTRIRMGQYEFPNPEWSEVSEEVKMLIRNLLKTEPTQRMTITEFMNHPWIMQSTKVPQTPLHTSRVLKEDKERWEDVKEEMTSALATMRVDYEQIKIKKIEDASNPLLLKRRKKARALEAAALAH
Sequence of BMPR2 (Q13873 whole entry): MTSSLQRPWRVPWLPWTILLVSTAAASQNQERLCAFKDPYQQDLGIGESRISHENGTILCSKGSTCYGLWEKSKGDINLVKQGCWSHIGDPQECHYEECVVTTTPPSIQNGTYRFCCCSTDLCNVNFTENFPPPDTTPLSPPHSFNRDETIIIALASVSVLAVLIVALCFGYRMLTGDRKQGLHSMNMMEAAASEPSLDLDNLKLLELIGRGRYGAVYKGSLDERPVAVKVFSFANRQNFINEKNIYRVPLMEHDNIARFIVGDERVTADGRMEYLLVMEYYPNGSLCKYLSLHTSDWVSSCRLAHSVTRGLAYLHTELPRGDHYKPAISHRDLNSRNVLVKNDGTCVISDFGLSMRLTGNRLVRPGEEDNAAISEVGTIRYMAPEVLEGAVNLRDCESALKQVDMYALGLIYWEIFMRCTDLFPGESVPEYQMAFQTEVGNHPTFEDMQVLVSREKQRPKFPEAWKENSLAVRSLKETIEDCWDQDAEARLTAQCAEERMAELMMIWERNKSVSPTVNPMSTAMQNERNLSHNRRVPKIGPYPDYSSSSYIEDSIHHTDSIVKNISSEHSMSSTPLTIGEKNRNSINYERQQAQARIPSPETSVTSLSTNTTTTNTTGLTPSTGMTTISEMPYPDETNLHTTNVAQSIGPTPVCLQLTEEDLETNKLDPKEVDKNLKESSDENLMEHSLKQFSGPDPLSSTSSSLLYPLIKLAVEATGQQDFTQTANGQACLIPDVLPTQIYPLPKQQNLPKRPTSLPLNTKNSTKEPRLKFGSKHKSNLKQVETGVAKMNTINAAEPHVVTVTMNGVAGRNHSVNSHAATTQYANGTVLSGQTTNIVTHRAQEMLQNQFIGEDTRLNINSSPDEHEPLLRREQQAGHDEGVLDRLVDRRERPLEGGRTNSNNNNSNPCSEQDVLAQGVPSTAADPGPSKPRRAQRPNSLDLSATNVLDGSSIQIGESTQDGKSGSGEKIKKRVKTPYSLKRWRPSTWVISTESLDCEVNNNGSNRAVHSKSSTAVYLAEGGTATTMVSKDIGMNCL
Sequence of CDK16 (Q00536 whole entry): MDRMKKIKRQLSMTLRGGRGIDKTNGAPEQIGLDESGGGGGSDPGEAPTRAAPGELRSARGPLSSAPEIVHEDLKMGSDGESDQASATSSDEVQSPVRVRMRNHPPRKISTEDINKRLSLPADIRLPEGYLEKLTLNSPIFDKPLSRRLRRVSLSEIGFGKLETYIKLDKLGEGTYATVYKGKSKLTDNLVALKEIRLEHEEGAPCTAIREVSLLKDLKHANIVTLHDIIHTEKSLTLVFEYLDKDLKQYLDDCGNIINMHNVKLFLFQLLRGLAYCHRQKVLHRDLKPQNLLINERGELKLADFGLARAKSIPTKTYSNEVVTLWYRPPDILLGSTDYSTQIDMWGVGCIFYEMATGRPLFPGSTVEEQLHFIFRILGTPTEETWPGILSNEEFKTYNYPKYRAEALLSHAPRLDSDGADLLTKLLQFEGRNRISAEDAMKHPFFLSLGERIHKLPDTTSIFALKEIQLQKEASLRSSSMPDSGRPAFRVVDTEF
Sequence of CDKL5 (O76039 whole entry): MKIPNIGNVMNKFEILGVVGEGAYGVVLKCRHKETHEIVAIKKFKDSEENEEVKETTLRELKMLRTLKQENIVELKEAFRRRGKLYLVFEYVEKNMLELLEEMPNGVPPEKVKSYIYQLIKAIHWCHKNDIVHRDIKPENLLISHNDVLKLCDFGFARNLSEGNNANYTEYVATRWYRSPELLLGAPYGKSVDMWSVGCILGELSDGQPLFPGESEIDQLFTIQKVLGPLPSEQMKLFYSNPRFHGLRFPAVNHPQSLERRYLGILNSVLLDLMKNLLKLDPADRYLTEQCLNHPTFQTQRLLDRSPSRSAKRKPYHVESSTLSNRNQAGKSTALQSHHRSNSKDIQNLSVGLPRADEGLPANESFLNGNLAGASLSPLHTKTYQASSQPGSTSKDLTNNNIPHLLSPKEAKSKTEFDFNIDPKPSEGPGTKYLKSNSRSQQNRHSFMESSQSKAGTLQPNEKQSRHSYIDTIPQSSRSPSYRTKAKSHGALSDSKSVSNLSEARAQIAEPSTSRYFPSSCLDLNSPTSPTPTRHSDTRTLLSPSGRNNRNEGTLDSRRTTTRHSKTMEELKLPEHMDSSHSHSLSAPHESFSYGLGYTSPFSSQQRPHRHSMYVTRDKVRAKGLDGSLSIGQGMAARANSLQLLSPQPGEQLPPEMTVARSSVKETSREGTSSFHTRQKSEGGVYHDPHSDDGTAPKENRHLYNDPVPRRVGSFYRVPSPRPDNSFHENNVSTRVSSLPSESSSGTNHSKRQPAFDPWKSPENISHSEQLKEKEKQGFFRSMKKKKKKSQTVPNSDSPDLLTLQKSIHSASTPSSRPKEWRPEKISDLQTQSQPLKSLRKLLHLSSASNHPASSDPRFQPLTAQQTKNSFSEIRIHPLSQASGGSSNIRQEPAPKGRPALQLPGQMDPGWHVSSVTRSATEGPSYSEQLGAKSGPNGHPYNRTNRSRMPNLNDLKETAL
Sequence of SNRK (Q9NRH2 whole entry): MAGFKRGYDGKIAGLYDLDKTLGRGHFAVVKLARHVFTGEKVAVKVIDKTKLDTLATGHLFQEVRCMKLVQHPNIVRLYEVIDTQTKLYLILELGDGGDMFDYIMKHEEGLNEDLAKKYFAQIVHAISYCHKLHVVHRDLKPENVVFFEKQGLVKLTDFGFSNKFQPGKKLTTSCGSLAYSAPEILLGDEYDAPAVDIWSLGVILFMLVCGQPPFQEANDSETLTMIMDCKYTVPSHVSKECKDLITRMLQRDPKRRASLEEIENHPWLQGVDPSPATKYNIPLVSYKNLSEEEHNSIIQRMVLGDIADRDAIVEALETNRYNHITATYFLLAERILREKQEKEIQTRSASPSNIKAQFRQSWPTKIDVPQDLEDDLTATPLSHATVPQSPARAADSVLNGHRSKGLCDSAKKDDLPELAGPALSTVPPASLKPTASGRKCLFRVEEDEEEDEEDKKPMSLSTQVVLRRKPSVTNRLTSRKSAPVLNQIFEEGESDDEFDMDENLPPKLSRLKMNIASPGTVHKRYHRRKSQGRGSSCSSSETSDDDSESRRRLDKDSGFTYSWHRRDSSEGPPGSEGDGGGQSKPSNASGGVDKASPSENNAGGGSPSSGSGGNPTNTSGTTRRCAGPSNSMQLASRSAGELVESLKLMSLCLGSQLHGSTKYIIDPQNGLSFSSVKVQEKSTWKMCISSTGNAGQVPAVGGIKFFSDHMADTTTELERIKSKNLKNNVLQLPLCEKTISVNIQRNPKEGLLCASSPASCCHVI
Sequence of MAPK14 (Q16539 whole entry): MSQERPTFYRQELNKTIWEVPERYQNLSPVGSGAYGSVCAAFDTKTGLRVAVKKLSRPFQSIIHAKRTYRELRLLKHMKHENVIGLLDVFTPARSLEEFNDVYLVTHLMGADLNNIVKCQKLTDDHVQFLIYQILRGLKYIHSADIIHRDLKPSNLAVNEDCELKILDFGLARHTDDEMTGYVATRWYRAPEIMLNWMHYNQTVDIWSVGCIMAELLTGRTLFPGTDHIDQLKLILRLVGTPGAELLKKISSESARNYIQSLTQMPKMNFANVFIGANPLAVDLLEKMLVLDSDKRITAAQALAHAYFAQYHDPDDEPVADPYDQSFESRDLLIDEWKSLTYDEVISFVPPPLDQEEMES

Turning to `Oc1ccc(C2=Cc3ccc(O)cc3OC2)cc1` [compound 1, idronoxil], the remaining binding at 10 µM on BMPR2 is 99%; at CDK16, 93%; at CDKL5 it was 97%; on EGFR it was 83%; at ERBB4, 91%; at FLT3-autoinhibited, 51%. The remaining binding at 10 µM at HIPK2 worked out at 47%; on KDR it was 61%; at MAP3K14 it was 60%; at MAPK14 it was 90%; on MAPKAPK2 it was 65%; on MET, 81%. For the same compound, the remaining binding at 10 µM is 80% on MYLK2; 71% at NEK1; 79% at PIK3CG; 82% at ROCK2; 77% on SGK1; 81% at SNRK. Besides, the results for the remaining binding at 10 µM at STK16 and at TNK1 were 100% and 76%, respectively.
